# From US9096591B2, “Tetracyclic compounds” (Medivation Technologies, Inc., priority 2007, dated 2015)
# Key:
# [1] = target: T1, human recombinant histamine H2 receptor (Homo sapiens, UniProt P25021); test: Histamine H2 radioligand binding ([125I]Aminopotentidine); details: percent inhibition of specific binding; screened at 1 μM; read-out: Inhibition of ligand binding, Hist. H2
# T1 construct: expressed in transfected cells; host or cells: CHO-K1 cells
# Summary of the method: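 This radioligand binding assay measured displacement of [125I]Aminopotentidine from recombinant human histamine H2 receptors. Compounds were dissolved in 1% DMSO vehicle. Specific binding was calculated by subtracting non-specific binding, defined using 3 μM Tiotidine, and activity was reported as percentage inhibition of that specific binding.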
# [2] = target: T2, human recombinant adrenergic α2B receptor (Homo sapiens, UniProt P18089); test: Adrenergic α2B radioligand binding ([3H]Rauwolscine); parameters: Inhibition of ligand binding, Adren. alpha2B: concentration or dose not given beside the values; details: percent inhibition of specific binding
# T2 construct: expressed in transfected cells; host or cells: CHO-K1 cells
# T2 sequence (P18089 1-450): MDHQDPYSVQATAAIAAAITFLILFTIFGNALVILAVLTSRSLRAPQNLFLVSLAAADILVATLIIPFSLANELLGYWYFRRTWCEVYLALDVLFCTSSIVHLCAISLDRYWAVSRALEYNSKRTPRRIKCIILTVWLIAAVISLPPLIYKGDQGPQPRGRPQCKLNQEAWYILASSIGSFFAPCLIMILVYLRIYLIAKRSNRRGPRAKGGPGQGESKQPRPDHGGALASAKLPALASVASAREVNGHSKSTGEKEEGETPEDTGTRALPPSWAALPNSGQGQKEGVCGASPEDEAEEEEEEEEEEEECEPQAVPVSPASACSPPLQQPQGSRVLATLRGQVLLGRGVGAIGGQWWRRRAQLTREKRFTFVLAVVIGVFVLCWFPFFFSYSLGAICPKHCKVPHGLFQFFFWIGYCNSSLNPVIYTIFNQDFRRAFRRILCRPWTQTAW
# Summary of the method: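 Incubation ran 60 minutes at 25 °C in modified Tris-HCl buffer (50 mM, pH 7.4, 12.5 mM MgCl2, 1 mM EDTA, 0.2% BSA) using CHO-K1-expressed human receptor.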
# [3] = target: T3, human recombinant dopamine D2L receptor (Homo sapiens, UniProt P14416); test: Dopamine D2L radioligand binding ([3H]Spiperone); details: percent inhibition of specific binding
# T3 construct: expressed in transfected cells; host or cells: CHO cells
# Description: Non-specific binding was estimated in the presence of 10 μM Haloperidol. Receptor proteins were filtered and washed, the filters were then counted to determine [^3H]Spiperone specifically bound. […] Biochemical assay results are presented as the percent inhibition of specific binding in Table 6.
# [4] = target: T4, human recombinant serotonin (5-Hydroxytryptamine) 5-HT2C receptor (Homo sapiens, UniProt P28335); test: Serotonin 5-HT2C radioligand binding ([3H]Mesulergine); parameters: Inhibition of ligand binding, Ser. 5-HT2C: concentration or dose not given beside the values; details: percent inhibition of specific binding
# T4 construct: expressed in transfected cells; host or cells: CHO-K1 cells
# T4 sequence (P28335 33-458): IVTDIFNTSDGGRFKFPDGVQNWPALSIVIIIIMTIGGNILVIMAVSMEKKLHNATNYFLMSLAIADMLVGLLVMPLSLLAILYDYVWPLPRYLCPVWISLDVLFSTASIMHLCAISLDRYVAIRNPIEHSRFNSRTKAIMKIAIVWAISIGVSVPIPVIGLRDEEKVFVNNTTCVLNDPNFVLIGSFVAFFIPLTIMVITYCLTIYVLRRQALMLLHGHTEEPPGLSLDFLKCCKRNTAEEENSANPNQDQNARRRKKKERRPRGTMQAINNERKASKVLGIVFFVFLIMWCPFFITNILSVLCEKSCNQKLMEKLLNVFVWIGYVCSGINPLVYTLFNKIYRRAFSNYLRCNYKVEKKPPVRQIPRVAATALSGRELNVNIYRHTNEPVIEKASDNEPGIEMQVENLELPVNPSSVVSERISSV
# Description: Compounds of the invention were incubated with 1 nM [^3H]Mesulergine for 60 minutes at 25° C. Non-specific binding was estimated in the presence of 1 μM Mianserin. Receptor proteins were filtered and washed, the filters were then counted to determine [^3H]Mesulergine specifically bound. […] Biochemical assay results are presented as the percent inhibition of specific binding in Table 6.
# T3 sequence (P14416 whole entry): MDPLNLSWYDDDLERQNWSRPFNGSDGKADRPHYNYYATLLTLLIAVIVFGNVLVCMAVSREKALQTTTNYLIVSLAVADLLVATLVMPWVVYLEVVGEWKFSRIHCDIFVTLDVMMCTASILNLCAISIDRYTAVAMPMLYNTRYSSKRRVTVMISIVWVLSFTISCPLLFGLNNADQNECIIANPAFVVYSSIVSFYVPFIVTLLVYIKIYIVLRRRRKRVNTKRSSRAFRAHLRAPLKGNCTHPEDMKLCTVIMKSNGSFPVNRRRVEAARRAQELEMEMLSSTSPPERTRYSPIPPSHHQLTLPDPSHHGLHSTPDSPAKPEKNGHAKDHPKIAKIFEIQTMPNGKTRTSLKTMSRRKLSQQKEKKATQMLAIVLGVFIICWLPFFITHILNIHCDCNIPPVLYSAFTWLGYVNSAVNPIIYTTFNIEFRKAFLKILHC
# T1 sequence (P25021 whole entry): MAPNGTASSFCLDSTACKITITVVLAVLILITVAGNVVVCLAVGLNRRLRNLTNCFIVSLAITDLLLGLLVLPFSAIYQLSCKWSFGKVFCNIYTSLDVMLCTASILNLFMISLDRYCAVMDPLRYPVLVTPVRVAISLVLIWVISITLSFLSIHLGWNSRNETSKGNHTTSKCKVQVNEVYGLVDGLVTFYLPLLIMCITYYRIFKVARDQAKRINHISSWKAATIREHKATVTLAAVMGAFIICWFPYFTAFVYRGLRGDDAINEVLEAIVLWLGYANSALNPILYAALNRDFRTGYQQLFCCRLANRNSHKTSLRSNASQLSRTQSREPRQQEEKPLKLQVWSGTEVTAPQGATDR
smiles,measurement,setting,value
"CCc1ccc2c(c1)c1c(n2CCc2cnc(C)cn2)CCN(C)C1 [Compound 364, 8-Ethyl-2-methyl-5-[2-(5-methyl-pyrazin-2-yl)-ethyl]-2,3,4,5-tetrahydro-1H-pyrido[4,3-b]indole]",inhibition at 1 µM,[1],13%
same,"Inhibition of ligand binding, Adren. alpha2B",[2],109%
same,"Inhibition of ligand binding, Dop. D2L",[3],29%
same,"Inhibition of ligand binding, Ser. 5-HT2C",[4],81%
"Cc1cnc(CCn2c3c(c4cc(C(C)C)ccc42)CN(C)CC3)cn1 [Compound 369, 8-Isopropyl-2-methyl-5-[2-(5-methyl-pyrazin-2-yl)-ethyl]-2,3,4,5-tetrahydro-1H-pyrido[4,3-b]indole]",inhibition at 1 µM,[1],6%
same,"Inhibition of ligand binding, Adren. alpha2B",[2],105%
same,"Inhibition of ligand binding, Dop. D2L",[3],1%
same,"Inhibition of ligand binding, Ser. 5-HT2C",[4],57%
"Cc1ncc(CCn2c3c(c4cc(C(C)C)ccc42)CN(C)CC3)cn1 [Compound 370, 8-Isopropyl-2-methyl-5-[2-(2-methyl-pyrimidin-5-yl)-ethyl]-2,3,4,5-tetrahydro-1H-pyrido[4,3-b]indole]",inhibition at 1 µM,[1],18%
same,"Inhibition of ligand binding, Adren. alpha2B",[2],87%
same,"Inhibition of ligand binding, Dop. D2L",[3],10%
same,"Inhibition of ligand binding, Ser. 5-HT2C",[4],40%
"Cc1cccc2c3c(n(CCc4ccc(C(F)(F)F)nc4)c12)CCN(C)C3 [Compound 380, 5-(2-(6-(trifluoromethyl)pyridin-3-yl)ethyl)-2,3,4,5-tetrahydro-2,6-dimethyl-1H-pyrido[4,3-b]indole]",inhibition at 1 µM,[1],69%
same,"Inhibition of ligand binding, Adren. alpha2B",[2],103%
same,"Inhibition of ligand binding, Dop. D2L",[3],−5%
same,"Inhibition of ligand binding, Ser. 5-HT2C",[4],70%
"Cc1ccc2c(c1)c1c(n2CCc2cncnc2)CCN(C)C1 [Compound 387, 2,8-Dimethyl-5-(2-pyrimidin-5-yl-ethyl)-2,3,4,5-tetrahydro-1H-pyrido[4,3-b]indole]",inhibition at 1 µM,[1],11%
same,"Inhibition of ligand binding, Adren. alpha2B",[2],95%
same,"Inhibition of ligand binding, Dop. D2L",[3],1%
same,"Inhibition of ligand binding, Ser. 5-HT2C",[4],76%
"Cc1ccc(CCn2c3c(c4cc(C(C)C)ccc42)CN(C)CC3)cn1 [Compound 392, 8-Isopropyl-2-methyl-5-[2-(6-methyl-pyridin-3-yl)-ethyl]-2,3,4,5-tetrahydro-1H-pyrido[4,3-b]indole]",inhibition at 1 µM,[1],58%
same,"Inhibition of ligand binding, Adren. alpha2B",[2],109%
same,"Inhibition of ligand binding, Dop. D2L",[3],24%
same,"Inhibition of ligand binding, Ser. 5-HT2C",[4],82%
"Cc1ccc2c(c1)c1c(n2CC(=O)N2Cc3ccccc3C2)CCN(C)C1 [Compound 397, 2-(1,2,3,4-tetrahydro-2,8-dimethylpyrido[4,3-b]indol-5-yl)-1-(isoindolin-2-yl)ethanone]",inhibition at 1 µM,[1],32%
same,"Inhibition of ligand binding, Adren. alpha2B",[2],40%
same,"Inhibition of ligand binding, Dop. D2L",[3],5%
same,"Inhibition of ligand binding, Ser. 5-HT2C",[4],44%
"Cc1ccc2c(c1)c1c(n2CC(=O)N2CCc3ccccc3C2)CCN(C)C1 [Compound 398, 2-(1,2,3,4-tetrahydro-2,8-dimethylpyrido[4,3-b]indol-5-yl)-1-(3,4-dihydroisoquinolin-2(1H)-yl)ethanone]",inhibition at 1 µM,[1],24%
same,"Inhibition of ligand binding, Adren. alpha2B",[2],50%
same,"Inhibition of ligand binding, Dop. D2L",[3],8%
same,"Inhibition of ligand binding, Ser. 5-HT2C",[4],69%
"Cc1ccc2c(c1)c1c(n2CC(=O)N2CCSCC2)CCN(C)C1 [Compound 399, 2-(1,2,3,4-tetrahydro-2,8-dimethylpyrido[4,3-b]indol-5-yl)-1-thiomorpholinoethanone]",inhibition at 1 µM,[1],10%
same,"Inhibition of ligand binding, Adren. alpha2B",[2],11%
same,"Inhibition of ligand binding, Dop. D2L",[3],0%
same,"Inhibition of ligand binding, Ser. 5-HT2C",[4],73%
"Cc1ccc2c(c1)c1c(n2CC(=O)N2CCCC(C)C2)CCN(C)C1 (centres unmarked) [Compound 401, 2-(1,2,3,4-tetrahydro-2,8-dimethylpyrido[4,3-b]indol-5-yl)-1-(3-methylpiperidin-1-yl)ethanone]",inhibition at 1 µM,[1],14%
same,"Inhibition of ligand binding, Adren. alpha2B",[2],3%
same,"Inhibition of ligand binding, Dop. D2L",[3],−12%
same,"Inhibition of ligand binding, Ser. 5-HT2C",[4],39%
"Cc1ccc(CCn2c3c(c4cc(Cl)ccc42)CN(c2cccc(C(F)(F)F)c2)CC3)cn1 [Compound 403, 8-Chloro-5-[2-(6-methyl-pyridin-3-yl)-ethyl]-2-(3-trifluoromethyl-phenyl)-2,3,4,5-tetrahydro-1H-pyrido[4,3-b]indole]",inhibition at 1 µM,[1],10%
same,"Inhibition of ligand binding, Adren. alpha2B",[2],46%
same,"Inhibition of ligand binding, Dop. D2L",[3],2%
same,"Inhibition of ligand binding, Ser. 5-HT2C",[4],35%
"CN1CCN(CCn2c3c(c4cc(Cl)ccc42)CN(C)CC3)CC1 [Compound 417, 8-chloro-2,3,4,5-tetrahydro-2-methyl-5-(2-(4-methylpiperazin-1-yl)ethyl)-1H-pyrido[4,3-b]indole]",inhibition at 1 µM,[1],19%
same,"Inhibition of ligand binding, Adren. alpha2B",[2],−1%
same,"Inhibition of ligand binding, Dop. D2L",[3],−12%
same,"Inhibition of ligand binding, Ser. 5-HT2C",[4],29%
"CN1CCc2c(c3cc(Cl)ccc3n2CCc2cncnc2)C1 [Compound 424, 8-Chloro-2-methyl-5-(2-pyrimidin-5-yl-ethyl)-2,3,4,5-tetrahydro-1H-pyrido[4,3-b]indole]",inhibition at 1 µM,[1],19%
same,"Inhibition of ligand binding, Adren. alpha2B",[2],94%
same,"Inhibition of ligand binding, Dop. D2L",[3],17%
same,"Inhibition of ligand binding, Ser. 5-HT2C",[4],76%
"Cc1ccc2c(c1)c1c(n2CCc2cncc(C(F)(F)F)c2)CCN(C)C1 [Compound 425, 5-(2-(5-(trifluoromethyl)pyridin-3-yl)ethyl)-2,3,4,5-tetrahydro-2,8-dimethyl-1H-pyrido[4,3-b]indole]",inhibition at 1 µM,[1],85%
same,"Inhibition of ligand binding, Adren. alpha2B",[2],99%
same,"Inhibition of ligand binding, Dop. D2L",[3],−1%
same,"Inhibition of ligand binding, Ser. 5-HT2C",[4],72%
"CN1CCc2c(c3cc(Cl)ccc3n2CCc2cncc(C(F)(F)F)c2)C1 [Compound 426, 8-chloro-5-(2-(5-(trifluoromethyl)pyridin-3-yl)ethyl)-2,3,4,5-tetrahydro-2-methyl-1H-pyrido[4,3-b]indole]",inhibition at 1 µM,[1],66%
same,"Inhibition of ligand binding, Adren. alpha2B",[2],98%
same,"Inhibition of ligand binding, Dop. D2L",[3],−7%
same,"Inhibition of ligand binding, Ser. 5-HT2C",[4],80%
"Cc1cncc(CCn2c3c(c4cc(C)ccc42)CN(C)CC3)c1 [Compound 429, 2,3,4,5-tetrahydro-2,8-dimethyl-5-(2-(5-methylpyridin-3-yl)ethyl)-1H-pyrido[4,3-b]indole]",inhibition at 1 µM,[1],68%
same,"Inhibition of ligand binding, Adren. alpha2B",[2],115%
same,"Inhibition of ligand binding, Dop. D2L",[3],23%
same,"Inhibition of ligand binding, Ser. 5-HT2C",[4],84%
"Cc1ccc2c(c1)c1c(n2CC(=O)N2CCN(C)CC2)CCN(C)C1 [Compound 459, 2-(1,2,3,4-tetrahydro-2,8-dimethylpyrido[4,3-b]indol-5-yl)-1-(4-methylpiperazin-1-yl)ethanone]",inhibition at 1 µM,[1],-4%
same,"Inhibition of ligand binding, Adren. alpha2B",[2],−20%
same,"Inhibition of ligand binding, Dop. D2L",[3],−7%
same,"Inhibition of ligand binding, Ser. 5-HT2C",[4],3%
